Measured values: ChEMBL document CHEMBL5674860, “Optimized Dual-Glo Assay to identify co-culture-induced drug vulnerabilities in 3D CRC models” (2024)

Experiments:
Type in all cases: functional, Homo sapiens
Parameters in all cases: dose or concentration left out as unconfirmed
Colon cancer organoid [1] = assay: Optimized Dual-Glo assay to identify co-culture induced drug vulnerabilities using donated chemical probes and chemogenomics kinase set in O14 CRC organoid and F14 CAF mono and co-culture. […] Cell viability is reported both mono and co-culture models.
Colon cancer organoid [2] = assay: Optimized Dual-Glo assay to identify co-culture induced drug vulnerabilities using donated chemical probes and chemogenomics kinase set in O06 CRC organoid and F06 CAF mono and co-culture. […] Cell viability is reported both mono and co-culture models.
Colon cancer organoid [3] = assay: Optimized Dual-Glo assay to identify co-culture induced drug vulnerabilities using donated chemical probes and chemogenomics kinase set in O20 CRC organoid and F20 CAF mono and co-culture. […] Cell viability is reported both mono and co-culture models.
[4] = Culture type Co-Culture, Transduced with Lucferase2-P2A-EGFP lentivirus
[5] = Culture type Co-Culture, Transduced with Renilla-dsRed lentivirus
[6] = Culture type Mono-Culture, Transduced with Lucferase2-P2A-EGFP lentivirus
[7] = Culture type Mono-Culture, Transduced with Renilla-dsRed lentivirus

SMILES | Cell Viability (Colon cancer organoid [1]; [4]) [%] | Cell Viability (Colon cancer organoid [1]; [5]) [%] | Cell Viability (Colon cancer organoid [1]; [6]) [%] | Cell Viability (Colon cancer organoid [1]; [7]) [%] | Cell Viability (Colon cancer organoid [2]; [4]) [%] | Cell Viability (Colon cancer organoid [2]; [5]) [%] | Cell Viability (Colon cancer organoid [2]; [6]) [%] | Cell Viability (Colon cancer organoid [2]; [7]) [%] | Cell Viability (Colon cancer organoid [3]; [4]) [%] | Cell Viability (Colon cancer organoid [3]; [5]) [%] | Cell Viability (Colon cancer organoid [3]; [6]) [%] | Cell Viability (Colon cancer organoid [3]; [7]) [%]
Cl.Cl.Cl.c1ccc(N2CCN(Cc3nc4ccccc4[nH]3)CC2)nc1 | 78.8417 | 120.535 | 87.6489 | 99.3304 | 145.739 | 162.508 | 117.947 | 106.828 | 41.4322 | 124.541 | 78.9868 | 88.4978
O=C(Nc1cccnn1)N1CCC(=Cc2cccc(Oc3ccc(C(F)(F)F)cn3)c2)CC1 | 80.0964 | 115.877 | 79.6396 | 77.8588 | 113.161 | 193.053 | 80.1285 | 90.1757 | 75.4997 | 114.419 | 100.525 | 97.4491
COc1ccccc1S(=O)(=O)Nc1ccc2c(c1)CN(C)C(=O)N2 | 98.1337 | 101.069 | 91.805 | 99.3977 | 75.1061 | 112.248 | 98.6756 | 116.533 | 111.384 | 99.8859 | 75.6376 | 98.229
COc1cc2c(cc1NS(=O)(=O)c1ccc(Br)cc1C)n(C)c(=O)n2C | 78.4023 | 92.6515 | 95.4962 | 108.084 | 53.0589 | 146.987 | 78.5311 | 120.075 | 86.3374 | 193.757 | 91.9028 | 113.163
Clc1cccc(-c2nnnn2Cc2cccnc2)c1Cl | 106.43 | 104.512 | 115.794 | 81.6635 | 143.79 | 176.132 | 116.081 | 109.73 | 106.259 | 101.74 | 98.4532 | 98.284
Cc1nc(N2CC[C@H](O)C2)ncc1-c1cc(C(F)(F)F)cc2[nH]ncc12 | 63.6905 | 138.157 | 56.4353 | 87.4633 | 111.861 | 161.788 | 77.8362 | 94.0965 | 47.2711 | 153.575 | 55.4223 | 100.169
O=C1CCc2cc(Nc3cc(OC4CCOCC4)c([N+](=O)[O-])cc3Cl)ccc2N1 | 95.0687 | 106.674 | 142.925 | 117.869 | 112.978 | 126.115 | 116.283 | 106.249 | 150.133 | 114.972 | 136.194 | 114.49
Cc1c(C(=O)O)cc(-c2ccc(C3CCNCC3)cc2)c2ccc(-c3ccc(C(F)(F)F)cc3)cc12.Cl | 89.0162 | 119.102 | 89.8992 | 99.4723 | 69.2582 | 93.9723 | 78.1885 | 87.9203 | 115.549 | 99.1911 | 103.532 | 103.975
C[C@@H](c1cccc(CN)c1)n1cc(Cl)cc(C(N)=O)c1=N.Cl | 79.0577 | 134.768 | 97.3624 | 96.7861 | 104.535 | 114.984 | 142.418 | 104.758 | 85.1583 | 93.567 | 85.5992 | 85.7646
C[C@@H](c1cccc(C#N)c1)n1cc(Cl)cc(C(N)=O)c1=N.Cl | 96.0836 | 104.787 | 81.7502 | 103.626 | 92.5611 | 127.503 | 97.2998 | 98.9566 | 64.263 | 72.4154 | 105.334 | 111.16
O=C(NCc1ccccc1)c1ccc(S(=O)(=O)NCc2ccccc2)cc1 | 77.1762 | 97.8485 | 125.216 | 99.6349 | 120.089 | 107.944 | 199.391 | 148.571 | 89.1581 | 96.8328 | 97.877 | 137.118
O=C(Nc1cccnn1)N1CC(C/C=C/c2cncc(Oc3ccc(C(F)(F)F)cn3)n2)C1 | 84.7499 | 109.288 | 99.5215 | 99.7577 | 131.321 | 196.307 | 116.585 | 92.4101 | 97.9448 | 112.944 | 119.523 | 106.69
CCNC(=O)c1cc2c(N3CCOCC3C)ccnc2[nH]1 (stereo not drawn) | 86.1024 | 100.89 | 87.7409 | 81.9796 | 131.632 | 146.353 | 109.161 | 91.669 | 144.452 | 100.256 | 103.659 | 101.624
Cl.Cn1cncc1[C@](O)(COc1ccc(C#N)cc1-c1ccc(OC(F)(F)F)cc1)c1ccc(C#N)cc1 | 26.9606 | 99.4366 | 53.0011 | 61.9663 | 31.9269 | 197.169 | 11.7395 | 58.9843 | 15.3114 | 150.357 | 17.164 | 65.8997
